Measurements taken from patent US20260265238A1, “COMPOUNDS AND PHARMACEUTICAL COMPOSITIONS THAT DEGRADE SWI/SNF-RELATED MATRIX-ASSOCIATED ACTIN-DEPENDENT REGULATOR OF CHROMATIN SUBFAMILY A” (Plexium, Inc., priority 2023, published 2026).

Tests used:
[1] = target: T1, SMARCA4-HiBiT HeLa cells (protein which is expressed from the SMARCA4 gene) (Homo sapiens, UniProt P51532); test: SMARCA4 degradation assay (HiBiT-fusion HeLa cell line, 24 h, luminescence); assay type: cell-based
T1 construct: protein which is expressed from the SMARCA2 and SMARCA4 genes; host or cells: HeLa (SMARCA4-HiBiT engineered line)
Method in brief: (§1)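 In this 24-hour cellular degradation readout, HiBiT-tagged HeLa lines received compound at up to typically 10 μM down to 300 pM in 10 points. After lysis with LgBiT and substrate, luminescence signals were used to build dose-response curves for DC50.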

[2] = target: T2, SMARCA2-HiBiT HeLa cells (protein which is expressed from the SMARCA2 gene) (Homo sapiens, UniProt P51531); test: SMARCA2 degradation assay (HiBiT-fusion HeLa cell line, 24 h, luminescence); assay type: cell-based
T2 construct: protein which is expressed from the SMARCA2 and SMARCA4 genes; host or cells: HeLa (SMARCA2-HiBiT engineered line)
Method in brief: as §1

T2 sequence (P51531 whole entry, the tested form may be a part): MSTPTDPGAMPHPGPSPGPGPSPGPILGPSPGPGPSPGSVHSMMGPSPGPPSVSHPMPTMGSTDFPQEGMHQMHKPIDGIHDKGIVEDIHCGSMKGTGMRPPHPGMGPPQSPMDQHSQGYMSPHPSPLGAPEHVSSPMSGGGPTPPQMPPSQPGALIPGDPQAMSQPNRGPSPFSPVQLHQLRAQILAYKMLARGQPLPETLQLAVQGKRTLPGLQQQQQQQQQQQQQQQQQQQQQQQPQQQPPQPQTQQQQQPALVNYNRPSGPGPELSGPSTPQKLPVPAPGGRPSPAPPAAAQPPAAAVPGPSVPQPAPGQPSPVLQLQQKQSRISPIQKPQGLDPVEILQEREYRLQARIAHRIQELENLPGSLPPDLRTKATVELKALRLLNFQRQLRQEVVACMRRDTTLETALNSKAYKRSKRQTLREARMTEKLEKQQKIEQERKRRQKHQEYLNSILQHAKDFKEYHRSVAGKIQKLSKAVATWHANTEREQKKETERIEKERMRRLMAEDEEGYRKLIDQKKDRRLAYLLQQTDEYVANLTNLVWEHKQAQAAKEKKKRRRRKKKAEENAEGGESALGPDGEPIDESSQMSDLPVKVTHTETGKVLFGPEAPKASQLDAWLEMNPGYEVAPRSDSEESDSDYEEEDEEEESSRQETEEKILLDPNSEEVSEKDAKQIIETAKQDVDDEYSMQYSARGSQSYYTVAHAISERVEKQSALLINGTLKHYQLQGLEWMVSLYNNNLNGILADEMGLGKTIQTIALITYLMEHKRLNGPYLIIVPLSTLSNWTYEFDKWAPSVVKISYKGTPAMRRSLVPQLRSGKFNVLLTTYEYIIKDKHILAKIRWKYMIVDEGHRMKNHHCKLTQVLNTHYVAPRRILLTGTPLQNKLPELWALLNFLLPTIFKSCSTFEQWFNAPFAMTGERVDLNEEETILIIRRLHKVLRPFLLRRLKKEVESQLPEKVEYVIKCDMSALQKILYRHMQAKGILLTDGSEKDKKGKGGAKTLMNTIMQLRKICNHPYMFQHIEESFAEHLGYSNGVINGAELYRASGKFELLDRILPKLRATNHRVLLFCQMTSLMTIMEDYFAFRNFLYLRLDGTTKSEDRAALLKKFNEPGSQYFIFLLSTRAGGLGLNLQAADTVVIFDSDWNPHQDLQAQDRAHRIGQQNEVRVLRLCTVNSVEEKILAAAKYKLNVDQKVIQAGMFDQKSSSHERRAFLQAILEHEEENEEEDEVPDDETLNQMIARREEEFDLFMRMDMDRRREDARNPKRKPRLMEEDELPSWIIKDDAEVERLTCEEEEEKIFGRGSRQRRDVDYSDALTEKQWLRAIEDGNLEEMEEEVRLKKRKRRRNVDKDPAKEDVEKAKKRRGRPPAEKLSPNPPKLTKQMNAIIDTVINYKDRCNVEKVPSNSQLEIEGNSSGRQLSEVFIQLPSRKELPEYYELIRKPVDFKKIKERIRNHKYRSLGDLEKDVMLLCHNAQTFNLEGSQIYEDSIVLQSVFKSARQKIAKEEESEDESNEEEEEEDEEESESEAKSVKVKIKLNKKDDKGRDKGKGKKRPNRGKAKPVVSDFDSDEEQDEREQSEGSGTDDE
T1 sequence (P51532 whole entry, the tested form may be a part): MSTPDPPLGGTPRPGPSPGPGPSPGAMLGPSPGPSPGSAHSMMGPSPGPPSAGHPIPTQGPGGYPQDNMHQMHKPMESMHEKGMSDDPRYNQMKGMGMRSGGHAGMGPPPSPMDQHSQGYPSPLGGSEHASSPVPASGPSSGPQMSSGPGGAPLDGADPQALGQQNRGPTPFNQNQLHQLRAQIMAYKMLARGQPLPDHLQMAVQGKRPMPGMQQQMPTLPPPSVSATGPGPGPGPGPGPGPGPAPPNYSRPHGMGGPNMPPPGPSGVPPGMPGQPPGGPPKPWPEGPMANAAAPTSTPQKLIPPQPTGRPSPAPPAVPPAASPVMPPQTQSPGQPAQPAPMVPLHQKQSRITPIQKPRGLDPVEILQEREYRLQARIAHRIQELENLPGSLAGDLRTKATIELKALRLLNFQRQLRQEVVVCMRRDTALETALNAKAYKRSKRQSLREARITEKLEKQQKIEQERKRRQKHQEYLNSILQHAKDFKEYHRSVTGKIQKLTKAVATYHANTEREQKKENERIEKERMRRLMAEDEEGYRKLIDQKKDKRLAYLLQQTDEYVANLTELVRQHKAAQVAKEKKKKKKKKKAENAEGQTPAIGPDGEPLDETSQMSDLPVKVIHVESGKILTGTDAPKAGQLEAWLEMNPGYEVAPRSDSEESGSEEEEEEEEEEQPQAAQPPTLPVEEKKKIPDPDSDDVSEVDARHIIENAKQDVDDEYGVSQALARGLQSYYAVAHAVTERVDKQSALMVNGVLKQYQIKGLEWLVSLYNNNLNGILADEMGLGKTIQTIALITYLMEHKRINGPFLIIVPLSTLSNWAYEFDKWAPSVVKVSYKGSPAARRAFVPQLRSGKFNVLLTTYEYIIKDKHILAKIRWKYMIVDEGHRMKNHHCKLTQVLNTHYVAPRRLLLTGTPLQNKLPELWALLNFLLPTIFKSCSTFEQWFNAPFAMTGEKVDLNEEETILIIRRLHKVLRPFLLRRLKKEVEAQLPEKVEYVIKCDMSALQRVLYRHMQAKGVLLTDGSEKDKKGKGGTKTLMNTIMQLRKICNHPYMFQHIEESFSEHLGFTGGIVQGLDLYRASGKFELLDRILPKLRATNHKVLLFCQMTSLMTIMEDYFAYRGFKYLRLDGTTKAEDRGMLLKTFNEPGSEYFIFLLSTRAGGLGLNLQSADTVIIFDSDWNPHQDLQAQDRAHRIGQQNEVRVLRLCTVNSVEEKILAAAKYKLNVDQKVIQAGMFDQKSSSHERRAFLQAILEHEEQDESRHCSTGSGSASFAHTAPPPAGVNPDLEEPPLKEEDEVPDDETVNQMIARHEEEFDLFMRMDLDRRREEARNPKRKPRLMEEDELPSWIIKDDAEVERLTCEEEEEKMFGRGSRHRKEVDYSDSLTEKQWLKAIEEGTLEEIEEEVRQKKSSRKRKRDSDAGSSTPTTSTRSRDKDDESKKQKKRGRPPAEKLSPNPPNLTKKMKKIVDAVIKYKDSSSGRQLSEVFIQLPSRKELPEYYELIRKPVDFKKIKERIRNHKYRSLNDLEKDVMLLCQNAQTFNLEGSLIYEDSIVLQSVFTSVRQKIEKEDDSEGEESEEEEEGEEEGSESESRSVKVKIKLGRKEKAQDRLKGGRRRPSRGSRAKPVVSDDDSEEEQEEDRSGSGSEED

| DC50 [1] [nM] | inhibition at 1 µM [1] [%] | DC50 [2] [nM] | SMARCA2 % Degradation @ 1 μM [2] | Compound |
| --- | --- | --- | --- | --- |
| 50 to 500 | > 70 | 50 to 500 | ++ (++=30-70%) | COCc1cc(N2CCCN(c3cc(-c4ccccc4O)nnc3N)CC2)nc(C#CCNC(=O)c2cc3ncccn3n2)n1 [Compound P-127, N-(3-(4-(4-(3-amino-6-(2-hydroxyphenyl)pyridazin-4-yl)-1,4-diazcpan-1-yl)-6-(methoxymethyl)pyrimidin-2-yl)prop-2-yn-1-yl)pyrazolo[1,5-a]pyrimidine-2-carboxamide] |
| 50 to 500 | > 70 | 50 to 500 | +++ (+++=>70%) | Nc1nnc(-c2ccccc2O)cc1N1CCCN(c2ccnc(C#CCNC(=O)c3cc4ncccn4n3)n2)CC1 [Compound P-76, N-(3-(4-(4-(3-amino-6-(2-hydroxyphenyl)pyridazin-4-yl)-1,4-diazepan-1-yl)pyrimidin-2-yl)prop-2-yn-1-yl)pyrazolo[1,5-a]pyrimidine-2-carboxamide] |
| 50 to 500 | < 30 | 50 to 500 | ++ (++=30-70%) | Nc1nnc(-c2ccccc2O)cc1N1CCN(c2ccnc(C#CCCNC(=O)c3cc4ncccn4n3)n2)CC1 [Compound P-94, N-(4-(4-(4-(3-amino-6-(2-hydroxyphenyl)pyridazin-4-yl)piperazin-1-yl)pyrimidin-2-yl)but-3-yn-1-yl)pyrazolo[1,5-a]pyrimidine-2-carboxamide] |
| 50 to 500 | 30 to 70 | 50 to 500 | ++ (++=30-70%) | Nc1nnc(-c2ccccc2O)cc1N1CCCN(c2ccnc(C#CCn3ccc4ccccc43)n2)CC1 [Compound P-151, 2-(5-(4-(2-(3-(1H-indol-1-yl)prop-1-yn-1-yl)pyrimidin-4-yl)-1,4-diazepan-1-yl)-6-aminopyridazin-3-yl)phenol] |
| 50 to 500 | 30 to 70 | 50 to 500 | +++ (+++=>70%) | C[C@@H]1CCN(c2cc(-c3ccccc3O)nnc2N)CCN1c1ccnc(C#CCn2ccnc2)n1 [Compound P-298, 0-{5-[(R)-4-{2-[3-(1-imidazolyl)-1-propynyl]-4-pyrimidinyl}-5-mcthyl-1,4-diazepan-1-yl]-6-amino-3-pyridazinyl}phenol] |
| 50 to 500 | 30 to 70 | 50 to 500 | +++ (+++=>70%) | C[C@@H]1CCN(c2cc(-c3ccccc3O)nnc2N)CCN1c1ccnc(C#CCN2CCC3(CC2)COC3)n1 [Compound P-199, o-{5-[(R)-5-methyl-4-(2-{3-(2-oxa-7-aza-7-spiro[3.5]nonyl)-1-propynyl}-4-pyrimidinyl)-1,4-diazepan-1-y1]-6-amino-3-pyridazinyl}phenol] |
| 50 to 500 | < 30 | < 50 | ++ (++=30-70%) | C[C@@H]1CCN(c2cc(-c3ccccc3O)nnc2N)CCN1c1ccnc(C#CCn2cccn2)n1 [Compound P-332, 0-{5-[(R)-5-methyl-4-{2-[3-(1-pyrazolyl)-1-propynyl]-4-pyrimidinyl}-1,4-diazepan-1-y1]-6-amino-3-pyridazinyl}phenol] |
| 50 to 500 | < 30 | 500 to 5000 | + (+=<30%) | CC1(C)CN(c2ccnc(C#CCNC(=O)c3cc4ncccn4n3)n2)CCN1c1cc(-c2ccccc2O)nnc1N [Compound P-83, N-(3-(4-(4-(3-amino-6-(2-hydroxyphenyl)pyridazin-4-yl)-3,3-dimethylpiperazin-1-yl)pyrimidin-2-yl)prop-2-yn-1-yl)pyrazolo[1,5-a]pyrimidine-2-carboxamide] |
| 500 to 5000 | 30 to 70 | 50 to 500 | ++ (++=30-70%) | CC1(C)CN(CC#Cc2nccc(N3CCCN(c4cc(-c5ccccc5O)nnc4N)CC3)n2)CCO1 [Compound P-311, 0-[6-amino-5-(4-{2-[3-(2,2-dimethyl-4-morpholinyl)-1-propynyl]-4-pyrimidinyl}-1,4-diazepan-1-yl)-3-pyridazinyl]phenol] |
| 50 to 500 | 30 to 70 | 50 to 500 | +++ (+++=>70%) | CC(C)[C@@H]1COCCN1CC#Cc1nccc(N2CCN(c3cc(-c4ccccc4O)nnc3N)CC[C@H]2C)n1 [Compound P-262, o-{5-[(R)-4-(2-{3-[(R)-3-isopropyl-4-morpholinyl]-1-propynyl}-4-pyrimidinyl)-5-methyl-1,4-diazepan-1-yl]-6-amino-3-pyridazinyl} phenol] |

The remaining lines, values behind:

| Compound | DC50 [1] [nM] | inhibition at 1 µM [1] [%] | DC50 [2] [nM] | SMARCA2 % Degradation @ 1 μM [2] |
| --- | --- | --- | --- | --- |
| Nc1nnc(-c2ccccc2O)cc1N1CCN(c2ccnc(C#CCNC(=O)c3cc4n(n3)CCC4)n2)CC1 [Compound P-59, N-(3-(4-(4-(3-amino-6-(2-hydroxyphenyl)pyridazin-4-yl)piperazin-1-yl)pyrimidin-2-yl)prop-2-yn-1-yl)-5,6-dihydro-4H-pyrrolo[1,2-b]pyrazole-2-carboxamide] | > 5000 |  | 50 to 500 | ++ (++=30-70%) |
| Nc1nnc(-c2ccccc2O)cc1N1CC2CCC(C1)N2c1ccnc(C#CCn2cccn2)n1 [Compound P-133, 2-(5-(8-(2-(3-(1H-pyrazol-1-yl)prop-1-yn-1-yl)pyrimidin-4-yl)-3,8-diazabicyclo[3.2.1]octan-3-yl)-6-aminopyridazin-3-yl)phenol] | 50 to 500 | 30 to 70 | 50 to 500 | ++ (++=30-70%) |
| CN(C)CC#Cc1nccc(N2C3CCC2CN(c2cc(-c4ccccc4O)nnc2N)C3)n1 [Compound P-134, 2-(6-amino-5-(8-(2-(3-(dimethylamino)prop-1-yn-1-yl)pyrimidin-4-yl)-3,8-diazabicyclo[3.2.1]octan-3-yl)pyridazin-3-yl)phenol] | < 50 | 30 to 70 | 50 to 500 | ++ (++=30-70%) |
| C[C@@H]1CCN(c2cc(-c3ccccc3O)nnc2N)CCN1c1ccnc(C#CCN2C3COCC2C3)n1 [Compound P-184, o-{5-[(R)-5-methyl-4-(2-{3-(3-oxa-6-azabicyclo[3.1.1]hept-6-yl)-1-propynyl}-4-pyrimidinyl)-1,4-diazepan-1-yl]-6-amino-3-pyridazinyl}phenol] | < 50 | 30 to 70 | < 50 | +++ (+++=>70%) |
| Nc1nnc(-c2ccccc2O)cc1N1CC2CCC(C1)N2c1ccnc(C#CCN2CC3CC2C3)n1 [Compound P-188, o-{6-amino-5-[8-(2-{3-(2-azabicyclo[2.1.1]hex-2-yl)-1-propynyl}-4-pyrimidinyl)-3,8-diazabicyclo[3.2.1]oct-3-yl]-3-pyridazinyl}phenol] | < 50 | 30 to 70 | < 50 | +++ (+++=>70%) |
| Nc1nnc(-c2ccccc2O)cc1N1CC2CCC(C1)N2c1ccnc(C#CC2(NC(=O)c3cc4ncccn4n3)CC2)n1 [Compound P-98, N-(1-((4-(3-(3-amino-6-(2-hydroxyphenyl)pyridazin-4-yl)-3,8-diazabicyclo[3.2.1]octan-8-yl)pyrimidin-2-yl)ethynyl)cyclopropyl)pyrazolo[1,5-a]pyrimidine-2-carboxamide] | 50 to 500 | 30 to 70 | 50 to 500 | ++ (++=30-70%) |
| CC1CCN(c2ccnc(C#CCNC(=O)c3cc4ncccn4n3)n2)CCN1c1cc(-c2ccccc2O)nnc1N (centres unmarked) [Compound P-19, N-(3-(4-(4-(3-amino-6-(2-hydroxyphenyl)pyridazin-4-yl)-5-methyl-1,4-diazepan-1-yl)pyrimidin-2-yl)prop-2-yn-1-yl)pyrazolo[1,5-a]pyrimidine-2-carboxamide] | 500 to 5000 | 30 to 70 | 500 to 5000 | ++ (++=30-70%) |
| CN(C)CC#Cc1nccc(N2C3CCC2CN(c2cc(-c4ccccc4O)nnc2N)CC3)n1 (centres unmarked) [Compound P-157, o-[6-amino-5-(9-{2-[3-(dimethylamino)-1-propynyl]-4-pyrimidinyl}-3,9-diazabicyclo[4.2.1]non-3-yl)-3-pyridazinyl]phenol] | 50 to 500 | 30 to 70 | < 50 | ++ (++=30-70%) |
